Data on one molecule can be found in patent US10899741B2, “3,4-bipyridyl pyrazole derivative, and preparation method therefor and medical application thereof” (Jiangsu Hengrui Medicine Co., Ltd., priority 2016, dated 2021).

This test concerns the target RIPK2 kinase (Homo sapiens (Human), UniProt O43353). As to the kind of experiment: Inhibition of RIPK2 kinase activity (ADP-Glo kit). To be noted: ATP 50 μM, 27° C. 2.5 hours. The class given is biochemical. How it is done: The inhibition of RIPK2 kinase activity in vitro was determined by the following method.
The inhibition effect of the compounds of the present invention on RIPK2 kinase activity was determined by the following experimental method:
RIPK2 kinase assay kit (V4084, Promega) was used to assay enzyme activity. 2 μl of RIPK2 enzyme solution (the final concentration of enzyme in the reaction system was 0.5 ng/μL) formulated with reaction buffer (40 mM Tris pH 7.5, 20 mM MgCl2, 0.1 mg/ml BSA), 1 μl of a 3-fold gradient dilution of Compound 1 dissolved in 5% DMSO, and 2 μl of a mixed solution of ATP and MBP substrate peptide (the final concentration of ATP was 50 μM, and the final concentration of substrate was 0.2 μg/μL) were added successively to a 384-well plate (4514, Corning). After reaction at 27° C. for 2.5 hours, 5 μl of ADP-Glo solution in the kit was added to each well, then the plate was placed at 27° C. for 40 minutes. 10 μl of kinase assay reagent was then added to each well, then the plate was placed at 27° C. for 30 minutes. The chemiluminescence signal values were measured with a Victor 3 (PerkinElmer) multi-function microplate reader. The IC50 values of the compounds for enzyme inhibition were calculated using Graphpad prism software based on each concentration of the compound and the corresponding signal value thereof.

RIPK2 kinase, sequence (O43353 whole entry): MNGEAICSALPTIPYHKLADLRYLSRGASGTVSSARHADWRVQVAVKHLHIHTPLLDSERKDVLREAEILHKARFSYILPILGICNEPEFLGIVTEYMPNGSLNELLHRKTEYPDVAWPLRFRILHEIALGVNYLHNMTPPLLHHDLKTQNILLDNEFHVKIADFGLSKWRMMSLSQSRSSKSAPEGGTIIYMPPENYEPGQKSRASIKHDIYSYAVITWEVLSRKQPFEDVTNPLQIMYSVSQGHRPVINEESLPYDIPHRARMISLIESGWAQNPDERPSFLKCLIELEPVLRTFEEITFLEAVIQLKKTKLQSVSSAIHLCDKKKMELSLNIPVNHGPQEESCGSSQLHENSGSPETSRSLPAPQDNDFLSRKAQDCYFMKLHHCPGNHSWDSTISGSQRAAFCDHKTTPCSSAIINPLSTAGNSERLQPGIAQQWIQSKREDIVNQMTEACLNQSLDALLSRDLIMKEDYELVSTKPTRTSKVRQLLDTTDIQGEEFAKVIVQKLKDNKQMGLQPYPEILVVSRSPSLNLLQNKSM

`Cc1cccc(-c2nn(C3CCC3)cc2-c2ccnc(-c3ccc(S(C)(=O)=O)cc3)c2)n1` [Example 1, 4-(1-Cyclobutyl-3-(6-methylpyridin-2-yl)-1H-pyrazol-4-yl)-2-(4-(methylsulfonyl)phenyl)pyridine] registered a concentration for half-maximal inhibition (IC50) of 1.2 µM.
